Data: PubChem BioAssay AID2060884 (Molecular Pharmacology Branch, DTP, NCI, 2025)

System: NCI-H929 complex spheroids, viability % test/control
Experiment: Anticancer human tumor NCI-H929 cell line growth inhibition [RAS];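 note: compound exposure lasted seven days before viability was read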;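 for viability, T/C: 100% = DMSO vehicle control viability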
Settings: for IC50: curve of first compound; for viability, T/C: stronger effect = lower value
Method in brief: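 Agents were tested in combination matrices in half-log decrements from a top concentration at or near clinical Cmax (10 microM if undetermined). Targets were multi-cell spheroids of tumour lines plus HUVEC and MSC stromal cells.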

[1] = second compound 0.000949 µM, first compound 0.0316 µM
[2] = second compound 0.000949 µM, first compound 0.1 µM
[3] = second compound 0.000949 µM, first compound 0.316 µM
[4] = second compound 0.000949 µM, first compound 1 µM
[5] = second compound 0.000949 µM, first compound 3.16 µM
[6] = second compound 0.000949 µM, first compound 10 µM
[7] = second compound 0.003 µM, first compound 0.0316 µM
[8] = second compound 0.003 µM, first compound 0.1 µM
[9] = second compound 0.003 µM, first compound 0.316 µM
[10] = second compound 0.003 µM, first compound 1 µM
[11] = second compound 0.003 µM, first compound 3.16 µM
[12] = second compound 0.003 µM, first compound 10 µM
[13] = second compound 0.00949 µM, first compound 0.0316 µM
[14] = second compound 0.00949 µM, first compound 0.1 µM
[15] = second compound 0.00949 µM, first compound 0.316 µM
[16] = second compound 0.00949 µM, first compound 1 µM
[17] = second compound 0.00949 µM, first compound 3.16 µM
[18] = second compound 0.00949 µM, first compound 10 µM
[19] = second compound 0.03 µM, first compound 0.0316 µM
[20] = second compound 0.03 µM, first compound 0.1 µM
[21] = second compound 0.03 µM, first compound 0.316 µM
[22] = second compound 0.03 µM, first compound 1 µM
[23] = second compound 0.03 µM, first compound 3.16 µM
[24] = second compound 0.03 µM, first compound 10 µM
[25] = second compound 0.0949 µM, first compound 0.0316 µM
[26] = second compound 0.0949 µM, first compound 0.1 µM
[27] = second compound 0.0949 µM, first compound 0.316 µM
[28] = second compound 0.0949 µM, first compound 1 µM
[29] = second compound 0.0949 µM, first compound 3.16 µM
[30] = second compound 0.0949 µM, first compound 10 µM
[31] = second compound 0.3 µM, first compound 0.0316 µM
[32] = second compound 0.3 µM, first compound 0.1 µM
[33] = second compound 0.3 µM, first compound 0.316 µM
[34] = second compound 0.3 µM, first compound 1 µM
[35] = second compound 0.3 µM, first compound 3.16 µM
[36] = second compound 0.3 µM, first compound 10 µM

Work on `CCC(CC)c1cc(NC2CCC(N)C2)n2nccc2n1` (centres undefined) + CCn1c(-c2cccnc2C(C)OC)c2c3cc(ccc31)N1CCOC(CC(NC(=O)C(C(C)C)N(C)C(=O)C3(F)CCN(C(=O)C#CC(C)(C)N(C)C)CC3)C(=O)N3CCCC(N3)C(=O)OCC(C)(C)C2)C1 yielded an IC50 (second compound 0.000949 µM) of 1540 nM, an IC50 (second compound 0.003 µM) of 1570 nM and an IC50 (second compound 0.00949 µM) of 1540 nM. For the same compound, the IC50 (second compound 0.03 µM) was 1340 nM, the IC50 (second compound 0.0949 µM) was 1400 nM and the IC50 (second compound 0.3 µM) was 1110 nM. The viability, T/C [1] was 102%, the viability, T/C [2] was 92.6% and the viability, T/C [3] was 92.5%. It also gave a viability, T/C [4] of 79.5%, a viability, T/C [5] of 0.2% and a viability, T/C [6] of 0.2%. The viability, T/C [7] was 100%, the viability, T/C [8] was 98.8% and the viability, T/C [9] was 93.5%. The viability, T/C [10] was 82.1%, the viability, T/C [11] was 0.2% and the viability, T/C [12] was 0.19%. The viability, T/C [13] was 102%, the viability, T/C [14] was 96.5% and the viability, T/C [15] was 92.5%. For the same compound, the viability, T/C [16] was 80.1%, the viability, T/C [17] was 0.2% and the viability, T/C [18] was 0.18%. It also gave a viability, T/C [19] of 97.3%, a viability, T/C [20] of 93.8% and a viability, T/C [21] of 93.5%. For the same compound, the viability, T/C [22] was 67%, the viability, T/C [23] was 0.19% and the viability, T/C [24] was 0.2%. For the same compound, the viability, T/C [25] was 98.1%, the viability, T/C [26] was 96.4% and the viability, T/C [27] was 89.2%. It also gave a viability, T/C [28] of 70.4%, a viability, T/C [29] of 0.22% and a viability, T/C [30] of 0.22%. The viability, T/C [31] was 102%, the viability, T/C [32] was 96.7% and the viability, T/C [33] was 94.3%. The viability, T/C [34] was 55.1%, the viability, T/C [35] was 0.25% and the viability, T/C [36] was 0.22%.

With `Cc1nc(N2CCC3(CC2)COC(C)C3N)c(CO)nc1Sc1ccnc(N)c1Cl` (centres undefined) + CCn1c(-c2cc(N3CCN(C)CC3)cnc2C(C)OC)c2c3cc(ccc31)-c1csc(n1)CC(NC(=O)C1CC1C)C(=O)N1CCCC(N1)C(=O)OCC(C)(C)C2 the IC50 (second compound 0.000949 µM) was > 10000 nM, the IC50 (second compound 0.003 µM) was > 10000 nM and the IC50 (second compound 0.00949 µM) was > 10000 nM. For the same compound, the IC50 (second compound 0.03 µM) was < 31.6 nM, the IC50 (second compound 0.0949 µM) was < 31.6 nM and the IC50 (second compound 0.3 µM) was < 31.6 nM. For the same compound, the viability, T/C [1] was 104%, the viability, T/C [2] was 96.9% and the viability, T/C [3] was 108%. The viability, T/C [4] was 105%, the viability, T/C [5] was 113% and the viability, T/C [6] was 108%. The viability, T/C [7] was 101%, the viability, T/C [8] was 102% and the viability, T/C [9] was 104%. The viability, T/C [10] was 107%, the viability, T/C [11] was 110% and the viability, T/C [12] was 107%. The viability, T/C [13] was 118%, the viability, T/C [14] was 123% and the viability, T/C [15] was 118%. For the same compound, the viability, T/C [16] was 124%, the viability, T/C [17] was 88.4% and the viability, T/C [18] was 119%. For the same compound, the viability, T/C [19] was 31.8%, the viability, T/C [20] was 25.4% and the viability, T/C [21] was 27.2%. The viability, T/C [22] was 27.8%, the viability, T/C [23] was 24.9% and the viability, T/C [24] was 19.7%. It also gave a viability, T/C [25] of 6.44%, a viability, T/C [26] of 6.29% and a viability, T/C [27] of 4.23%. For the same compound, the viability, T/C [28] was 5.24%, the viability, T/C [29] was 4.2% and the viability, T/C [30] was 2.67%. For the same compound, the viability, T/C [31] was 4.38%, the viability, T/C [32] was 3.24% and the viability, T/C [33] was 2.87%. It also gave a viability, T/C [34] of 3.05%, a viability, T/C [35] of 2.74% and a viability, T/C [36] of 1.82%.
